Measured values reported in ChEMBL document CHEMBL3045294, “Synthesis, anticonvulsant and toxicity screening of thiazolylthiadiazole derivatives” (Med Chem Res, 2011).
Active and inactive are the calls of the source. The calls are words filed in the database; no cut-off is given here.

Key:
Mus musculus [1] = organism: Mus musculus; test: Protective index, ratio of TD50 for Mus musculus albino (mouse) to ED50 for Mus musculus albino (mouse) by maximal electroshock-induced seizures test; assay type: functional
Mus musculus [2] = test: Hepatoxicity in Mus musculus albino (mouse) assessed as effect on SGOT level in serum at 3 to 30 mg/kg, ip; assay type: toxicity, organism-based; parameters: dose 3-30 mg/kg, route intraperitoneal; conditions: in vivo
Mus musculus [3] = test: Anticonvulsant activity in ip dosed Mus musculus albino (mouse) assessed as protection against subcutaneous pentylenetetrazol-induced seizures; assay type: functional
Mus musculus [4] = test: Hepatoxicity in Mus musculus albino (mouse) assessed as effect on SGPT level in serum at 3 to 30 mg/kg, ip; assay type: toxicity, organism-based; parameters: dose 3-30 mg/kg, route intraperitoneal; conditions: in vivo
Mus musculus [5] = test: Anticonvulsant activity in ip dosed Mus musculus albino (mouse) assessed as protection against maximal electroshock-induced seizures; assay type: functional
Mus musculus [6] = test: Hepatoxicity in Mus musculus albino (mouse) assessed as effect on alkaline phosphatase level in serum at 3 to 30 mg/kg, ip; assay type: toxicity, organism-based; parameters: dose 3-30 mg/kg, route intraperitoneal; conditions: in vivo
Mus musculus [7] = test: Anticonvulsant activity in ip dosed Mus musculus albino (mouse) assessed as protection against maximal electroshock-induced seizures after 4 hr; assay type: functional; conditions: read-out: MED
[8] = (§1) Neurotoxicity in ip dosed Mus musculus albino (mouse) after 0.5 hr rotorod test; assay type: toxicity, organism-based; conditions: albino, in vivo
Mus musculus [9] = test: Anticonvulsant activity in ip dosed Mus musculus albino (mouse) assessed as protection against maximal electroshock-induced seizures after 0.5 hr; assay type: functional; conditions: read-out: MED
[10] = (§2) Neurotoxicity in ip dosed Mus musculus albino (mouse) after 4 hr rotorod test; assay type: toxicity, organism-based; conditions: albino, in vivo
Mus musculus [11] = test: Anticonvulsant activity in ip dosed Mus musculus albino (mouse) assessed as protection against subcutaneous pentylenetetrazol-induced seizures after 4 hr; assay type: functional; conditions: read-out: MED
Mus musculus [12] = test: Protective index, ratio of TD50 for Mus musculus albino (mouse) to ED50 for Mus musculus albino (mouse) by subcutaneous pentylenetetrazol-induced seizures test; assay type: functional
Mus musculus [13] = test: Anticonvulsant activity in Mus musculus albino (mouse) assessed as protection against subcutaneous pentylenetetrazol-induced seizures at 300 mg/kg, ip after 0.5 hr; assay type: functional, organism-based; parameters: dose 300 mg/kg
Mus musculus [14] = test: Anticonvulsant activity in Mus musculus albino (mouse) assessed as protection against subcutaneous pentylenetetrazol-induced seizures at 300 mg/kg, ip after 4 hr; assay type: functional, organism-based; parameters: dose 300 mg/kg
Mus musculus [15] = test: Anticonvulsant activity in Mus musculus albino (mouse) assessed as protection against maximal electroshock-induced seizures at 300 mg/kg, ip after 4 hr; assay type: functional, organism-based; parameters: dose 300 mg/kg
Mus musculus [16] = test: as §2; assay type: toxicity, organism-based; conditions: in vivo, 4 h
Mus musculus [17] = test: as §1; assay type: toxicity, organism-based; conditions: in vivo, 0.5 h
Mus musculus [18] = test: Anticonvulsant activity in ip dosed Mus musculus albino (mouse) assessed as protection against subcutaneous pentylenetetrazol-induced seizures after 0.5 hr; assay type: functional; conditions: read-out: MED
Mus musculus [19] = test: Anticonvulsant activity in Mus musculus albino (mouse) assessed as protection against maximal electroshock-induced seizures at 300 mg/kg, ip after 0.5 hr; assay type: functional, organism-based; parameters: dose 300 mg/kg

Structure (SMILES)	minimal effective dose (Mus musculus [7])	MTD at 0.5 h [8]	minimal effective dose (Mus musculus [9])	MTD at 4 h [10]	minimal effective dose (Mus musculus [11])	Activity (Mus musculus [13])	Activity (Mus musculus [14])	MTC (Mus musculus [16])	MTC (Mus musculus [17])	other results
COc1ccc(Nc2nnc(Nc3nc(-c4ccc([N+](=O)[O-])cc4)cs3)s2)cc1	30 mg/kg	300 mg/kg	30 mg/kg	300 mg/kg	100 mg/kg	inactive	–	–	–	Ratio TD50/ED50 (Mus musculus [1]): 43.6; Activity (Mus musculus [2]): Toxic; ED50 (Mus musculus [3]): 433 mg/kg; Activity (Mus musculus [4]): Toxic; ED50 (Mus musculus [5]): 12.6 mg/kg; Activity (Mus musculus [6]): Toxic; TD50 at 0.5 h [8]: 550 mg/kg; Ratio TD50/ED50 (Mus musculus [12]): 1.2
Cc1ccccc1Nc1nnc(Nc2nc(-c3ccccc3)cs2)s1	–	300 mg/kg	300 mg/kg	–	–	inactive	inactive	300 mg/kg	–	Activity (Mus musculus [15]): inactive
CCCC(CCC)C(=O)O [VALPROIC ACID]	–	–	–	–	–	–	–	–	–	ED50 (Mus musculus [3]): 149 mg/kg
COc1ccccc1Nc1nnc(Nc2nc(-c3ccc(Br)cc3)cs2)s1	–	–	300 mg/kg	–	300 mg/kg	inactive	–	100 mg/kg	300 mg/kg	Activity (Mus musculus [15]): inactive
COc1ccccc1Nc1nnc(Nc2nc(-c3ccccc3)cs2)s1	300 mg/kg	300 mg/kg	100 mg/kg	300 mg/kg	300 mg/kg	–	–	–	–	minimal effective dose (Mus musculus [18]): 100 mg/kg
Cc1ccc(Nc2nnc(Nc3nc(-c4ccc([N+](=O)[O-])cc4)cs3)s2)cc1	100 mg/kg	300 mg/kg	30 mg/kg	300 mg/kg	–	–	inactive	–	–	Ratio TD50/ED50 (Mus musculus [1]): 11.3; Activity (Mus musculus [2]): Toxic; ED50 (Mus musculus [3]): 232 mg/kg; minimal effective dose (Mus musculus [18]): 300 mg/kg; Activity (Mus musculus [4]): Toxic; ED50 (Mus musculus [5]): 19.1 mg/kg; Activity (Mus musculus [6]): Toxic; TD50 at 0.5 h [8]: 216 mg/kg; Ratio TD50/ED50 (Mus musculus [12]): 0.9
Cc1ccc(Nc2nnc(Nc3nc(-c4ccccc4)cs3)s2)cc1	100 mg/kg	300 mg/kg	100 mg/kg	300 mg/kg	–	–	inactive	–	–	minimal effective dose (Mus musculus [18]): 300 mg/kg
O=[N+]([O-])c1ccc(-c2csc(Nc3nnc(Nc4ccccc4)s3)n2)cc1	–	–	100 mg/kg	300 mg/kg	–	inactive	inactive	–	100 mg/kg	Activity (Mus musculus [15]): inactive
Cc1ccc(Nc2nnc(Nc3nc(-c4ccc(Br)cc4)cs3)s2)cc1	100 mg/kg	–	100 mg/kg	–	300 mg/kg	–	–	300 mg/kg	300 mg/kg	minimal effective dose (Mus musculus [18]): 300 mg/kg
Cc1ccccc1Nc1nnc(Nc2nc(-c3ccc([N+](=O)[O-])cc3)cs2)s1	100 mg/kg	–	100 mg/kg	–	300 mg/kg	inactive	–	300 mg/kg	100 mg/kg	–
CCC1(c2ccccc2)C(=O)NC(=O)NC1=O [PHENOBARBITAL]	30 mg/kg	–	100 mg/kg	–	–	inactive	inactive	300 mg/kg	100 mg/kg	ED50 (Mus musculus [3]): 13.2 mg/kg; ED50 (Mus musculus [5]): 21.8 mg/kg
COc1ccccc1Nc1nnc(Nc2nc(-c3ccc([N+](=O)[O-])cc3)cs2)s1	300 mg/kg	–	300 mg/kg	300 mg/kg	300 mg/kg	inactive	–	–	300 mg/kg	–
Clc1ccc(-c2csc(Nc3nnc(Nc4ccccc4)s3)n2)cc1	300 mg/kg	300 mg/kg	–	300 mg/kg	–	inactive	inactive	–	–	Activity (Mus musculus [19]): inactive
COc1ccc(Nc2nnc(Nc3nc(-c4ccccc4)cs3)s2)cc1	100 mg/kg	–	100 mg/kg	300 mg/kg	300 mg/kg	inactive	–	–	300 mg/kg	–
c1ccc(Nc2nnc(Nc3nc(-c4ccccc4)cs3)s2)cc1	–	300 mg/kg	300 mg/kg	–	100 mg/kg	inactive	–	300 mg/kg	–	Activity (Mus musculus [15]): inactive
O=C1NC(=O)C(c2ccccc2)(c2ccccc2)N1 [PHENYTOIN]	30 mg/kg	–	30 mg/kg	–	–	inactive	inactive	100 mg/kg	100 mg/kg	ED50 (Mus musculus [3]): > 300 mg/kg
COc1ccccc1Nc1nnc(Nc2nc(-c3ccc(Cl)cc3)cs2)s1	300 mg/kg	–	–	–	100 mg/kg	inactive	–	300 mg/kg	300 mg/kg	Activity (Mus musculus [19]): inactive
Cc1ccc(Nc2nnc(Nc3nc(-c4ccc(Cl)cc4)cs3)s2)cc1	100 mg/kg	300 mg/kg	300 mg/kg	300 mg/kg	300 mg/kg	inactive	–	–	–	–
Brc1ccc(-c2csc(Nc3nnc(Nc4ccccc4)s3)n2)cc1	–	–	300 mg/kg	–	–	inactive	inactive	300 mg/kg	300 mg/kg	Activity (Mus musculus [15]): inactive
COc1ccc(Nc2nnc(Nc3nc(-c4ccc(Cl)cc4)cs3)s2)cc1	300 mg/kg	300 mg/kg	100 mg/kg	300 mg/kg	300 mg/kg	–	–	–	–	minimal effective dose (Mus musculus [18]): 100 mg/kg
Cc1ccccc1Nc1nnc(Nc2nc(-c3ccc(Cl)cc3)cs2)s1	300 mg/kg	300 mg/kg	300 mg/kg	300 mg/kg	–	inactive	inactive	–	–	–
CCC1(C)CC(=O)NC1=O (configuration not stated) [ETHOSUXIMIDE]	–	300 mg/kg	–	300 mg/kg	300 mg/kg	–	–	–	–	Ratio TD50/ED50 (Mus musculus [1]): 8.1; Activity (Mus musculus [19]): inactive; ED50 (Mus musculus [3]): > 100 mg/kg; minimal effective dose (Mus musculus [18]): 100 mg/kg; ED50 (Mus musculus [5]): 8.8 mg/kg; TD50 at 0.5 h [8]: 71.6 mg/kg; Activity (Mus musculus [15]): inactive; Ratio TD50/ED50 (Mus musculus [12]): <0.2
Cc1ccccc1Nc1nnc(Nc2nc(-c3ccc(Br)cc3)cs2)s1	300 mg/kg	–	300 mg/kg	300 mg/kg	300 mg/kg	inactive	–	–	100 mg/kg	–
